Laboratory results taken from patent US5545672A, “Treatment of insulin resistance and type 2 diabetes mellitus with a thiol protease inhibitor” (The University of Texas System, priority 1994, dated 1996).
Entries after “also recorded” stand apart in the source; their conditions may differ. Read-outs that look alike come from different tables or passages of the source.

Experiments:
[1] = test system: insulin receptor β subunit; settings: cultured cells chronically treated with high insulin; Knutson, J. Biol. Chem. 266, 1991; cited from earlier work
3T3-L1 adipocytes = assay: Insulin resistance in adipocytes: 14C-glucose incorporation into cellular lipid (lipogenesis); assay type: cell-based; settings: for insulin resistance (insulin stimulation of lipogenesis after preincubation): 3T3-L1 adipocytes, 9 h preincubation with insulin 1.7 μM alone or with E-64 100 μM; for cpm INCORPORATED: 9 h pretreatment (insulin 1.7 μM alone, or insulin 1.7 μM + E-64 100 μM); for FOLD STIMULATION: pretreatment as above
Experimental: Intact monolayers of 3T3-L1 adipocytes were preincubated in the absence of insulin (control) or for nine hours in the presence of 1.7 μM insulin to induce cellular insulin resistance. […] Following preincubation, the treated monolayers were extensively washed to remove any insulin present from the preincubation period. The monolayers were then incubated with insulin, 0, 0.05, or 10 nM for 30 minutes, followed by the addition of 14C-glucose at a final concentration of 25 mM. Incorporation of the radiolabeled glucose proceeded for 30 minutes, after which the cells were washed, lysed, and the cellular lipids extracted into chloroform:methanol (2:1). The amount of radiolabel incorporated into the cellular lipid was then quantified by liquid scintillation counting, and the results are shown in Table 2. This assay procedure is described in Tarlow et al., J. Cell Biol., 73:332-353, 1977.

lean Zucker rats = settings: 2.5 mg/kg I.P. every 24 h, data not shown
Excerpt: (§1) The injection protocol was initiated when the rats were 14 weeks old, a time when their insulin resistant state was fully manifest. Blood was drawn from the animals at intervals before the beginning of the injection schedule, and at at least one week intervals after initiating the injections. On the first day of the protocol, the fatty rats weighed an average of 416 grams.

Zucker fatty rats = settings: for SERUM TG: Zucker fatty rats
Excerpt: as §1

[2] = test system: insulin receptor β subunit; assay: Insulin-induced proteolysis of insulin receptor β subunit, quantitative immunoblot of membranes and cytosol; assay type: cell-based; settings: 3T3-C2 fibroblasts, 4 h; for β' FRAGMENT % IN CYTOSOL: normalized to maximum β' after eight hours of insulin
Experimental: Cell monolayers were scraped into 10 mM triethanolamine, 10 mM acetic acid, 1 mM EDTA, pH 7.4. The cells were disrupted in a Dounce homogenizer and subjected to centrifugation at 265,000×g, 70 min. at 4° C. The pellet was retained as cellular membranes and the supernatant was collected as the cytosolic fraction.
The cellular membranes were detergent-extracted and the extracts were subjected to SDS polyacrylamide gel electrophoresis on a 7.5% gel to resolve the intact β subunit (approximate mass 92 kDa).
Transfer of the cellular proteins from the 7.5% acrylamide gel to nitrocellulose was conducted at 18 V for 18 h, and the intact β subunit and β' fragment were detected as previously described (Knutson and Buck, Arch. Biochem. Biophys., 285:197-204, 1991). Briefly, following transfer, the nitrocellulose was blocked by incubation for 1 h with blot buffer (50 mM Tris, 0.2M NaCl, pH 8) containing 4% non-fat dry milk. Following blocking, the nitrocellulose was incubated with an anti-peptide antibody which specifically recognizes the carboxy-terminal 16 amino acid residues of the insulin receptor β subunit. This domain is contained in both the intact β subunit and the β' fragment. This antibody has been fully characterized and affinity purified (Knutson and Buck, ibid.). The antibody concentration was 5 μg/ml in blot buffer containing 1% non-fat dry milk, and the incubation was allowed to proceed for 2 h at room temperature. The unbound antibody was then removed from the nitrocellulose by 3 washes with blot buffer containing 1% non-fat dry milk and 0.05% Tween-20. The nitrocellulose was then incubated with ^125 I-protein A, 0.1 μCi/ml, with the blot buffer containing 1% non-fat dry milk, for 1 h at room temperature. Following a final 5 washes of the nitrocellulose with blot buffer-1% dry milk-0.05% Tween-20, the nitrocellulose was exposed to X-ray film. Autoradiographic intensities were quantitated by densitometric scanning.
Cytosolic β' fragment (approximate mass 61 kDa) was isolated by subjecting the […] to high speed centrifugation, removing the supernatant, subjecting the supernatant to SDS polyacrylamide gel electrophoresis on a 7.5% gel, transferring the cytosolic proteins to nitrocellulose, and detecting the cytosolic β' fragment by quantitative immunoblot (Western blot) analysis as described above. The β' fragment data was normalized to the maximum level of β' fragment detected after eight hours of insulin treatment. The above-described procedure is as described in Knutson, V. P., J. Biol. Chem., 266:15656-15662 (1991).

[3] = agent alone (insulin 1.7 μM; leupeptin 10 μg/ml; E-64 100 μM), control 100 ± 13

For `CC(C)C[C@H](NC(=O)[C@H]1O[C@@H]1C(=O)O)C(=O)NCCCCN=C(N)N` [E-64, L-transepoxysuccinyl-leucylamido (4-guanidino) butane], the “production of the insulin receptor fragment β'” value [1] is listed as “inhibited”, the “insulin resistance (insulin stimulation of lipogenesis after preincubation)” value (3T3-L1 adipocytes) is listed as “ameliorated” and the “cpm INCORPORATED” value (3T3-L1 adipocytes; then insulin 0 nM) is listed as 600 cpm. For the same compound, the “cpm INCORPORATED” value (3T3-L1 adipocytes; then insulin 0.05 nM) was 1100 cpm, the “cpm INCORPORATED” value (3T3-L1 adipocytes; then insulin 10 nM) was 3100 cpm and the “FOLD STIMULATION” value (3T3-L1 adipocytes; insulin 0 nM (baseline)) was 1 fold. For the same compound, the “FOLD STIMULATION” value (3T3-L1 adipocytes; insulin 0.05 nM) was 1.8 fold, the “FOLD STIMULATION” value (3T3-L1 adipocytes; insulin 10 nM) was 5.2 fold and the “effect on triglyceride levels in lean rats” value (lean Zucker rats) was “no effect”. For the same compound, the “effect on the increase in triglyceride levels found in control Zucker fatty rats” value (Zucker fatty rats; 2.5 mg/kg I.P. every 24 h) was “prevented the increase”, the “effect on insulin resistant state in Zucker fatty rats” value (Zucker fatty rats; 2.5 mg/kg I.P. every 24 h, 90 days) was “reduced but did not reverse” and the “SERUM TG” value (Zucker fatty rats; 2.5 mg/kg I.P. every 24 h, day 28, n = 3) was 798 ± 269 mg/dL. The “SERUM TG” value (Zucker fatty rats; 2.5 mg/kg I.P. every 24 h, day 56, n = 3) was 1045 ± 443 mg/dL, the “SERUM TG” value (Zucker fatty rats; 2.5 mg/kg I.P. every 24 h, day 89, n = 3) was 1093 ± 301 mg/dL and the “SERUM TG” value (Zucker fatty rats; day -4 of protocol (before injections), n = 3) was 1009 ± 157 mg/dL. For the same compound, the “β SUBUNIT % IN MEMBRANES” value [2, 3] was 143 ± 7%, the “β' FRAGMENT % IN CYTOSOL” value ([2]; agent alone, control 8 ± 5) was “Trace” and the “β' FRAGMENT % IN CYTOSOL” value ([2]; inhibitor + insulin 1.7 μM) was “Not detectable; also recorded: non-detectable”.

In the case of `CC(=O)N[C@@H](CC(C)C)C(=O)N[C@@H](CC(C)C)C(=O)N[C@H](C=O)CCCNC(=N)N` [Leupeptin, leupeptin], the “β SUBUNIT % IN MEMBRANES” value [2, 3] is reported as 97 ± 7%, the “β' FRAGMENT % IN CYTOSOL” value ([2]; agent alone, control 8 ± 5) is reported as “Trace” and the “β SUBUNIT % IN MEMBRANES” value ([2]; inhibitor + insulin 1.7 μM (leupeptin 10 μg/ml; E-64 100 μM)) is reported as 120 ± 17%. The “β SUBUNIT % IN MEMBRANES” value ([2]; inhibitor + insulin 1.7 μM (leupeptin 10 μg/ml; E-64 100 μM), listed as leupeptin) was “prevented insulin-induced loss”, the “β' FRAGMENT % IN CYTOSOL” value ([2]; inhibitor + insulin 1.7 μM) was “Not detectable” and the “β' FRAGMENT % IN CYTOSOL” value ([2]; inhibitor + insulin 1.7 μM, listed as leupeptin) was “prevented generation”.

In the case of insulin, the “insulin resistance (insulin stimulation of lipogenesis after preincubation)” value (3T3-L1 adipocytes) is reported as “no subsequent stimulation of lipogenesis”, the “cpm INCORPORATED” value (3T3-L1 adipocytes; then insulin 0 nM) is reported as 1600 cpm and the “cpm INCORPORATED” value (3T3-L1 adipocytes; then insulin 0.05 nM) is reported as 1900 cpm. For the same compound, the “cpm INCORPORATED” value (3T3-L1 adipocytes; then insulin 10 nM) was 1800 cpm, the “FOLD STIMULATION” value (3T3-L1 adipocytes; insulin 0 nM (baseline)) was 1 fold and the “FOLD STIMULATION” value (3T3-L1 adipocytes; insulin 0.05 nM) was 1.2 fold. The “FOLD STIMULATION” value (3T3-L1 adipocytes; insulin 10 nM) was 1.1 fold, the “β SUBUNIT % IN MEMBRANES” value [2, 3] was 80 ± 7% and the “β SUBUNIT % IN MEMBRANES” value ([2]; agent alone (insulin 1.7 μM; leupeptin 10 μg/ml; E-64 100 μM), control 100 ± 13, listed as insulin) was “decreased”. For the same compound, the “β' FRAGMENT % IN CYTOSOL” value ([2]; agent alone, control 8 ± 5) was 62 ± 6% and the “β' FRAGMENT % IN CYTOSOL” value ([2]; agent alone, control 8 ± 5, listed as insulin) was “increased”.
